Article PMC7215238 (Bioorganic & medicinal chemistry letters, 2020)

Experiments:
Assay type in all cases: cell-based
[1] = test system: E.coli IHMA 940398; test: MIC by broth microdilution, E. coli IHMA 940398; conditions: cation-adjusted Mueller-Hinton broth, CLSI guidelines, clinical strain with reduced susceptibility to PMB
[2] = test system: E.coli ATCC 25922; test: MIC by broth microdilution, E. coli ATCC 25922; conditions: cation-adjusted Mueller-Hinton broth, CLSI guidelines
[3] = test system: P.aeruginosa ATCC 27853; test: MIC by broth microdilution, P. aeruginosa ATCC 27853; conditions: cation-adjusted Mueller-Hinton broth, CLSI guidelines
[4] = test system: K.pneumoniae IHMA 652780; test: MIC by broth microdilution, K. pneumoniae IHMA 652780; conditions: cation-adjusted Mueller-Hinton broth, CLSI guidelines, clinical strain with reduced susceptibility to PMB
[5] = test system: A.baumannii IHMA 863866; test: MIC by broth microdilution, A. baumannii IHMA 863866; conditions: cation-adjusted Mueller-Hinton broth, CLSI guidelines, clinical strain with reduced susceptibility to PMB
[6] = test system: K.pneumoniae ATCC 4352; test: MIC by broth microdilution, K. pneumoniae ATCC 4352; conditions: cation-adjusted Mueller-Hinton broth, CLSI guidelines
[7] = test system: P.aeruginosa IHMA 517175; test: MIC by broth microdilution, P. aeruginosa IHMA 517175; conditions: cation-adjusted Mueller-Hinton broth, CLSI guidelines, clinical strain with reduced susceptibility to PMB
[8] = test system: A.baumannii NCTC 13424; test: MIC by broth microdilution, A. baumannii NCTC 13424; conditions: cation-adjusted Mueller-Hinton broth, CLSI guidelines

Substance: Polymyxin B [Compound 1]
- MIC E.coli IHMA 940398 [1]: 16 µg/mL
- MIC E.coli ATCC 25922 [2]: 0.25 µg/mL
- MIC P.aeruginosa ATCC 27853 [3]: 0.5 µg/mL
- MIC K.pneumoniae IHMA 652780 [4]: 4.0 µg/mL
- MIC A.baumannii IHMA 863866 [5]: 32 µg/mL
- MIC K.pneumoniae ATCC 4352 [6]: 0.125 µg/mL
- MIC P.aeruginosa IHMA 517175 [7]: 8.0 µg/mL
- MIC A.baumannii NCTC 13424 [8]: 0.25 µg/mL
